Measured values: US20240150396A1 (The Texas A&M University System, priority 2021, published 2024)
Values joined by “and” are separate entries in the source; they are usually repeats but may differ in a detail not shown here. Equal entries are not always repeated. Where two headings read alike, the source gives them in different places. Residues, ends and D or L forms follow the SMILES beside them. *: point of attachment. Cbz = O=C(OCc1ccccc1)*

What was measured:
[1] = molecular target: cruzain (Trypanosoma cruzi, UniProt P25779); assay: biochemical; conditions: for Ki: pH 7.5
Sequence of cruzain (P25779 123-467 limits assumed): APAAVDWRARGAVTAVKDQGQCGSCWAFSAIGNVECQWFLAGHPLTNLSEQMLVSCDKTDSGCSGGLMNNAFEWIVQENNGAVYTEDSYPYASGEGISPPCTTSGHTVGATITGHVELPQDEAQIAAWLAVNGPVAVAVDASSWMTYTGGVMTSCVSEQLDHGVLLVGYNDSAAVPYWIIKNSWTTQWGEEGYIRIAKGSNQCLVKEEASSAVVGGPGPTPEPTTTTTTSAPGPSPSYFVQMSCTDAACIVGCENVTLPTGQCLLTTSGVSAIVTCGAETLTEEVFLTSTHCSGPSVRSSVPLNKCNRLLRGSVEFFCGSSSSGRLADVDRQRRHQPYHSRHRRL
Procedure: All enzyme assays were performed at 25° C. Initial rates of the peptidolytic reaction catalyzed by cruzain were measured by monitoring the fluorescence generated by cleavage of the dipeptide-AMC bond. Assays were conducted in 96-well plates (Greiner; flat-bottom, clear black plates) in a total volume of 250 μL, containing either 50 mM MES (pH 7.5), 50 mM TAPSO, 100 mM DEA, 1 mM CHAPS, 1 mM Na2EDTA, 5 mM DTT, and 10% DMSO (v/v) or 50 mM sodium acetate (pH 5.5), 50 mM MES, 100 mM TEA, 1 mM CHAPS, 1 mM Na2EDTA, 5 mM DTT, and 10% DMSO (v/v). Substrates were dissolved in 100% DMSO and were then diluted 10-fold such that when added to reaction mixtures, final DMSO concentration was 10% (v/v). […] Fluorescence was measured on either a SpectraMax M5 (Molecular Devices) or a Synergy HTX (BioTek, Winooski, VT) microplate reader (λex=360 nm, λem=460 nm). Initial rates were determined from continuous kinetic time courses and calculated from the earliest time points, typically at less than 10 min.
(2) Enzyme and compound were preincubated over extended periods of time, and then aliquots were removed and diluted 50-fold to 100-fold into reaction mixtures containing 10 μM Cbz-Phe-Arg-AMC, followed by the assessment of the resulting time courses.
Data for time-dependent inhibition were fitted by several methods.
Values of kobs versus [inhibitor] were then replotted and fitted to eq 4 for which k3 and k4 represent the respective rates of formation and dissolution of the EI* complex as depicted in FIG. 9.
In addition, time-course data were fitted globally by two methods. First, expressions for vs, vi, and kobs were substituted into eq 3 to generate eq 6, which was used to fit time-course data at all concentrations of inhibitors simultaneously. Second, time-course data were fitted using KinTek Explorer as either a single-binding step model with the two kinetic parameters k3/Ki and k4 or a two-step binding mechanism as shown in FIG. 9 from which rate constants k1-k4 are determined (Supporting Information).
Enzyme Assays. The preparation of cruzain and 3CL^pro were described in previous publications.^8, 34 The evaluation of inhibitors was modified from our lab protocol and described briefly as follows.^35 All enzyme assays were conducted in 96-well, clear bottom, black plates at 25° C., and fluorescence emanating from product formation was measured using either a SpectraMax M5 (Molecular Devices) or a Synergy HTX (Biotek) microplate reader, with excitation at λex=360 nm and emission at λem=460 nm. […] Reactions were started with addition of enzyme (typically, to a final concentration of 0.2 nM for cruzain or 40 nM for 3CL^pro), and the time courses were recorded for 0.5-1 h.
Kinetic Data Analysis. All time-course data were fitted to eq. 1, wherein P is the fluorescence generated by formation of AMC or liberated ACC, C is the background constant, vi and vs are respectively initial-state and steady-state reaction rates, t is time, and kobs is the observed rate of conversion of the initial inhibited rate to the final inhibited rate.^46
Overall inhibition constants (Ki* values) were obtained by fitting vs/v0 to eq. 4, wherein vs and v0 are steady-state reaction rates in the presence and absence of inhibitor respectively, [S] and [I] represent the fixed concentration of substrate and variable inhibitor, Km is the Michaelis constant of the substrate.

[2] = test system: T. cruzi (Ca-I/72) in C2C12 murine cardiomyoblasts; assay: T. cruzi-infected murine cardiomyoblasts (C2C12); format: cell-based, Trypanosoma cruzi; conditions: read-out: EC50 T. cruzi-infected cardiomyoblasts
Procedure: For the evaluation of the antitrypanocidal activity of cruzain inhibitors, we infected a C2C12 mouse cardiomyoblast cell line (ATCC CRL-1772) with T. cruzi strain Ca-I/72 (a gift from James Dvorak, National Institutes of Health) in […] plates. […] The plates were incubated at 37° C. for 48 h, and the wells were fixed with 2% paraformaldehyde in PBS and stained with 5 μg mL-1 4,6-diamidino-2-phenylindole. After at least 30 min of incubation at room temperature in the dark, the plates were read in an automated microscope, ImageXpress Micro XL (Molecular Devices), and the images were analyzed by custom-built software to quantify and assess viability of the parasites, as well as the host cells independently. The compilation of data was used to calculate the antiparasitic activity (EC50) and host cytotoxicity (CC50).
T. cruzi infection was evaluated in C2C12 murine cardiomyoblast cells. 384-microwell plates containing C2C12 murine cardiomyoblast cells were infected with 10^3 and 10^4 cells of T. cruzi (Ca-I/72), to which was added 3-fold serially-dilutions of inhibitor with maximal concentrations of 10 μM, followed by incubation at 37° C. for 2 days. The wells were fixed with 2% PFA in PBS, and stained by 5 μg/ml of DAPI. After >30 min of incubation in a dark environment, the plates were read on an ImageXpress MicroXL microscope (Molecular Devices). The images were analyzed to quantify parasites as well host cells.

[3] = Host cell cytotoxicity in the T. cruzi infection model; format: cell-based, mouse; conditions: mouse; host cardiomyoblasts; read-out: C2C12 Cytotoxicity CC50
Procedure: The plates were incubated at 37° C. for 48 h, and the wells were fixed with 2% paraformaldehyde in PBS and stained with 5 μg mL-1 4,6-diamidino-2-phenylindole. After at least 30 min of incubation at room temperature in the dark, the plates were read in an automated microscope, ImageXpress Micro XL (Molecular Devices), and the images were analyzed by custom-built software to quantify and assess viability of the parasites, as well as the host cells independently. The compilation of data was used to calculate the antiparasitic activity (EC50) and host cytotoxicity (CC50).
T. cruzi infection was evaluated in C2C12 murine cardiomyoblast cells. […] The wells were fixed with 2% PFA in PBS, and stained by 5 μg/ml of DAPI. After >30 min of incubation in a dark environment, the plates were read on an ImageXpress MicroXL microscope (Molecular Devices). The images were analyzed to quantify parasites as well host cells.

[4] = molecular target: human cathepsin L (Homo sapiens (Human), UniProt P07711); assay: Human cathepsin L inhibition, Z-FR-AMC assay; format: biochemical; conditions: pH 5.5, 25° C.; read-out: Ki* hCatL
Sequence of human cathepsin L (P07711 114-333): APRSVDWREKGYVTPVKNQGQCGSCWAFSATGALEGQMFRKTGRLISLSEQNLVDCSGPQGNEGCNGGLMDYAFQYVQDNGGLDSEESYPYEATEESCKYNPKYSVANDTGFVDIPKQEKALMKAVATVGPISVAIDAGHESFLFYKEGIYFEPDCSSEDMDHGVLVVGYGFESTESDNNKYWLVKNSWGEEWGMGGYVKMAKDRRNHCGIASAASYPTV
Procedure: Recombinant human cathepsins B and L were purchased from Millipore Sigma and used without further treatment. The solid proteins were dissolved into a solution of 50 mM sodium acetate (pH 5.5), 1 mM EDTA, 1 mM CHAPS, 10% (v/v) DMSO, and 5 mM DTT to final concentrations of […] in 20-mL aliquots, and stored at −80° C. until needed. These samples were then diluted into the same buffer to concentrations of −100 nM, and these dilutions were stored at 4° C. and used daily until depletion.
For assays of cathepsin L and B, inhibitors were evaluated in 0.25-mL reaction mixtures containing a buffer of sodium acetate (pH 5.5), 1 mM CHAPS, 1 mM Na2EDTA, and 5 mM DTT at 25° C. The fluorogenic substrate Cbz-Phe-Arg-7-amino-4-methyl-coumarin (Z-FR-AMC) was dissolved in 100% DMSO, as were all inhibitors, and aliquots of both substrates and inhibitors were added to reaction mixtures to final concentrations of DMSO of 10% (v/v). […] Formation of the fluorescent product AMC was monitored over 30-60-minute time courses for reaction mixtures in 96-well black microplates (Corning Costar®). Rates of peptidolysis of the dipeptide-AMC substrate(s) were measured on either a SpectraMax M5 (Molecular Devices) or a Synergy HTX (Biotek, Wisnooki, VT) microplate reader with λex=360 nm, λem=460 nm in ≥8-sec intervals. Control samples excluded substrate. The measured relative fluorescence units (RFUs) of generated AMC were converted to reaction rates of μM/s by use of a standard curve of known AMC concentrations obtained for both plate readers.

[5] = molecular target: SARS-CoV-2 3CL protease (Severe acute respiratory syndrome coronavirus 2 (2019-nCoV) (SARS-CoV-2), UniProt P0DTD1); assay: biochemical; format: biochemical; conditions: pH 7.5
[6] = test system: T. b. brucei procyclic forms; assay: Growth of axenic cultures of T. b. brucei procyclic forms (PCFs); format: cell-based, Trypanosoma brucei brucei; conditions: for EC50: axenic culture, read-out: EC50 T. b. brucei PCF
[7] = test system: SARS-CoV-2 in Vero E6 cells; assay: Anti-CoV-2 activity in Vero E6 cells; format: cell-based
[8] = test system: T. b. brucei bloodstream forms; assay: Growth of axenic cultures of T. b. brucei bloodstream forms (BSFs)
Procedure: Selected cruzain inhibitors were evaluated in axenic cell cultures of T. b. brucei and T. cruzi. Procyclic trypomastigotes of T. b. brucei (ATCC PRA-381) were grown in the SDM-79 medium at 26° C., and bloodstream forms (ATCC PRA-383) were grown at 37° C. in the HMI-9 medium at 5% C02. […] Both forms of T. b. brucei and T. cruzi were grown in media containing 10% fetal bovine serum (FBS) and penicillin/streptomycin (50 U mL^−1). […] Control samples contained equal amounts of DMSO. T. b. brucei and T. cruzi (5 mL in flask cultures) were seeded at ˜3×10^6 cells and diluted daily, maintaining a mid-log growth phase for up to 120 h. […] After each cell dilution, fresh compound or an equal volume of DMSO (control samples) was supplemented into the cultures, while maintaining a constant concentration of each inhibitor. Cell counts were scored using a Z2 Coulter Counter.
In vitro Cell Assays. Bloodstream form T. b. brucei strain SM427 was grown in HM1-9 medium that included fetal bovine serum (10%) and antibiotics (100 U/mL penicillin-streptomycin, Gibco™). Inhibitors dissolved in 100% (v/v) DMSO stock solutions were added at final concentrations of 0.5-20 μM (final concentrations of DMSO were <1% (v/v)). T. b. brucei were seeded at ˜1×10^6 cells at 37° C., and diluted daily to maintain a log phase of growth for up to 96 h. […] After each dilution, the cell cultures were supplemented with inhibitor or DMSO (control) to keep concentrations constant. Cell density was determined and graphed as previously reported.^36 Trypanosomes were quantified using a Z2 Coulter Counter, and values of EC50 were determined after 3-4 days of treatment by the interpolation method of Huber and Koella.^37

[9] = Thiolation of inhibitors with glutathione, LCMS; format: physicochemical; conditions: 5 mM glutathione, 0.5 mM compound, Tris pH 8.0, 10% DMSO
Procedure: Samples were analyzed by HPLC-MS (as described above) by injecting 0.01 mL aliquots onto a Luna […] C18(2) 100 Å, 4.6 mm, 50 mm column (Phenomenex) using the HPLC method described in the chemistry section at 0-6 h time points. […] Integration of the chromatographic peaks of the inhibitors and their GSH adducts at each time point was used to determine the rate of GSH adduct formation.

[10] = test system: T. cruzi epimastigotes (strain Y); assay: Growth of axenic cultures of T. cruzi epimastigotes; conditions: for T. cruzi axenic culture EC50: epimastigotes; for EC50: Trypanosoma cruzi, read-out: T. cruzi axenic culture EC50, epimastigotes
[11] = test system: human dermal fibroblasts; assay: Human cell toxicity, resazurin viability; format: cell-based; conditions: human dermal fibroblasts; read-out: Human Cell Cytotoxicity CC50
Procedure: Primary human dermal fibroblast (HDF) cells were used to evaluate human cell toxicity of cruzain inhibitors. HDF cells were plated in a 384-well plate at 2400 cells per well (62,000 cells mL^−1). Inhibitors in 100% DMSO were added in duplicate to final concentrations of 0.001-0.1 mM and 1% DMSO (v/v) with 1% DMSO as a control sample, and cells were cultured at 37° C. for 48 h, followed by the addition of resazurin. Cell viability was then assessed by reading of fluorescence (excitation/emission: 544 nm/590 nm) after an additional 24 h of incubation.

[12] = apparent initial inhibition constant, 25° C., read-out: Ki
[13] = apparent tight-binding inhibition constant, 25° C., read-out: Ki*
[14] = Trypanosoma cruzi, C2C12, C2C12 murine cardiomyoblasts

SMILES: C[C@@H](/C=C/c1ncccn1)NC(=O)[C@H](Cc1ccccc1)NC(=O)OCc1ccccc1 [Compound 10, Benzyl ((S)-1-Oxo-3-phenyl-1-(((S,E)-4-(pyrimidin-2-yl)but-3-en-2-yl)amino)propan-2-yl)carbamate]
- Ki [1, 12]: 58 µM
- Ki ([1]; apparent tight-binding inhibition constant, 25° C.): 0.28 µM
- Ki [1, 13]: 25 ± 1 µM
- EC50 [2, 14]: 5 to 8 µM
- CC50 at 48 h [3]: > 10 µM

SMILES: O=C[C@H](Cc1ccccc1)NC(=O)[C@H](Cc1ccccc1)NC(=O)OCc1ccccc1 [Compound 28] (Cbz-Phe-Phe-aldehyde)
- k4 ([1]; conversion of EI* back to EI, from kobs replot or recovery after preincubation and dilution): (7.6±0.6)×10^−4 s^−1
- Ki ([1]; obtained >10 minutes following initiation of reaction by addition of enzyme, read-out: Ki* Cruzain): 0.00044 µM
- residence time τ ([1]; preincubation, dilution, recovery of cruzain activity): 52 min
- Ki [4]: 0.00031 µM
- Ki* 3CLpro [5]: not an inhibitor of 3CL protease
- Ki ([5]; read-out: Ki* 3CLpro): > 10 µM
- EC50 ([2]; C2C12 murine cardiomyoblasts): 0.5 µM and 0.25 µM
- EC50 [6]: 8 µM
- EC50 [7]: 0.5 µM
- EC50 ([8]; read-out: EC50 T. b. brucei BSF, axenic culture): 3 µM and 3.3 µM

SMILES: O=C(N[C@@H](Cc1ccccc1)C(=O)N[C@H](/C=C/c1cc(C(F)(F)F)ccn1)CCc1ccccc1)OCc1ccccc1 [Compound 17, Benzyl ((S)-1-Oxo-3-phenyl-1-(((S,E)-5-phenyl-1-(4-(trifluoromethyl)pyridin-2-yl)pent-1-en-3-yl)amino)propan-2-yl)-carbamate]
- Ki [1, 13]: 0.57 ± 0.05 µM
- inhibition at 20 µM ([6]; Trypanosoma brucei, at 20 μM, read-out: inhibition of cell growth): ≤ 50%
- Rate of Thiolation, k [9]: Negligible
- T. cruzi axenic culture EC50 [10]: poorly effective

SMILES: O=C(N[C@@H](Cc1ccccc1)C(=O)N[C@H](/C=C/c1ncco1)Cc1ccccc1)OCc1ccccc1 [Compound 24, Benzyl ((S)-1-(((S,E)-4-(Oxazol-2-yl)-1-phenylbut-3-en-2-yl)-amino)-1-oxo-3-phenylpropan-2-yl)carbamate]
- Ki [1, 12]: 10 ± 1 µM
- Ki [1, 13]: 0.71 ± 0.01 µM
- EC50 ([6]; Trypanosoma brucei): 27 ± 5 µM
- CC50 [11]: > 100 µM
- EC50 [10]: > 20 µM
- T. cruzi axenic culture EC50 [10]: poorly effective

SMILES: CN1CCN(C(=O)N[C@@H](Cc2ccccc2)C(=O)N[C@H](/C=C/c2ncccn2)CCc2ccccc2)CC1 [Compound 9, 4-Methyl-N—((S)-1-oxo-3-phenyl-1-(((S,E)-5-phenyl-1-(pyrimidin-2-yl)pent-1-en-3-yl)amino)propan-2-yl)piperazine-1-carboxamide]
- Ki [1, 13]: 2.2 ± 0.1 µM
- EC50 [2, 14]: 5 to 8 µM
- CC50 at 48 h [3]: > 10 µM
- EC50 [10]: 20 µM
- T. cruzi axenic culture EC50 [10]: poorly effective
- EC50 ([8]; Trypanosoma brucei, read-out: EC50 T. b. brucei BSF, axenic culture): > 20 µM
